We go through one sequence from patent publication US20240301408A1, “MICRORNA 195 COMPOSITIONS AND METHODS FOR TREATING COGNITIVE IMPAIRMENT” (UNITED STATES GOVERNMENT AS REPRESENTED BY THE DEPARTMENT …, priority 2021, published 2024).

Data set [1] relates to ApoE4+/+ or ApoE3+/+ knock-in (KI) mice. Description: novel object recognition (NOR) after hippocampal AAV2 injection, ApoE KI mice. It is filed as in vivo, mouse. The source says: Animal models. Human ApoE4^+/+ or ApoE3^+/+ knock-in (KI) mouse models without (Grootendorst J et al., Behavioural brain research 2005, Rodriguez G A et al., Learn Mem 2013, and Wang C et al., Neurobiology of disease 2005) or with 5×FAD background (Balu D et al., Neurosci Lett 2019, and Tai L M et al., J Lipid Res 2017) were genotyped (Zhong L et al., Mol Neurodegener 2016). Sex as a biological variable was taken into considerations with inclusion of both male and female mice in the experiments.
Stereotaxic injection and behavior studies. Eight to nine weeks old male and female ApoE3^+/+ and ApoE4^+/+ KI mice without 5×FAD background (N=19-23/group), or with 5×FAD background (N=15-17/group) were placed in the stereotaxic apparatus with AAV2 or scramble virus administered into the dorsal CA1 regions of bilateral hippocampal brain regions using pressure injection (Labonte B et al., Nat Med 2017, and Passini M A et al., The Journal of neuroscience 2006). Injection volumes (0.5-2.0 μl) were delivered over 10 min to avoid tissue damage. Six to nine months after viral delivery, mice were tested with the NOR task (Zhu L et al., Proc Natl Acad Sci USA 2015, Elder G A et al., J Neurotrauma 2012, and Howlett D R et al., Brain Res 2004). Mice were randomized for genotype and sex, and blinded throughout the behavior data collection and analysis, surgical manipulations, and sample collection.

For the next data set, the system named is phospho-Tau (pTau). Description: brain pTau levels in ApoE KI mice after miR-195 over-expression. The data set is classed as in vivo, mouse. How it is done: (§1) Stereotaxic injection and behavior studies. Eight to nine weeks old male and female ApoE3^+/+ and ApoE4^+/+ KI mice without 5×FAD background (N=19-23/group), or with 5×FAD background (N=15-17/group) were placed in the stereotaxic apparatus with AAV2 or scramble virus administered into the dorsal CA1 regions of bilateral hippocampal brain regions using pressure injection (Labonte B et al., Nat Med 2017, and Passini M A et al., The Journal of neuroscience 2006). Injection volumes (0.5-2.0 μl) were delivered over 10 min to avoid tissue damage. […]
(§2) Brain and neuronal sample preparation and biochemical analysis. […] Levels of Aβ42, Aβ40, pTau, Tau and ApoE were determined using high-sensitive ELISA kits. […]
(§3) Statistical analysis. […] Levels of miR-195-5p and miR-374 were normalized to U6 and RNU6B (internal controls) while synj1 mRNA normalized to GAPDH and 18s, and then expressed as Log2fold of changes when compared to controls. Levels of synj1, dyn1, pTau, Tau, and holoAPP were normalized to β-actin levels and expressed as a percentage of the control. Absolute Aβ42, Aβ40, pTau, Tau, and ApoE concentrations were quantitatively determined by ELISA and expressed as a percentage of the control. […] Pearson correlation coefficients were calculated to determine the linear relationship between the two variables. […]

The test system of data set [2] is endogenous mouse Aβ40 or Aβ42. Description: endogenous brain Aβ40 / Aβ42 levels in ApoE KI mice after miR-195 over-expression. It is filed as in vivo. The settings on record: ApoE4+/+ or ApoE3+/+ mouse brains. As to the method:
as §1, §2, §3

For the sequence “UAGCAGCACAGAAAUAUUGGC (chemistry not given here) [miR-195-5p, over-expressed via AAV2-containing miR-195-5p from ABM Inc]”, the “NOR, scramble versus miR-195-5p over-expressing animals” value in data set [1] (ApoE3+/+ KI mice) is listed as “no statistically significant differences”. For the same sequence, the NOR preference index in data set [1] (ApoE4+/+ KI mice, viral delivery to bilateral hippocampi, scramble controls 42.9%) is given as 61.5%. In data set [1] (ApoE4+/+ KI mice, scramble controls −0.144), this sequence registered an NOR discrimination index of 0.231. Besides, the pTau levels result in the data set with phospho-Tau (pTau) (ApoE3+/+ mice) is “Trends of reduction”. In addition, the “brain phospho-Tau (pTau) levels” value in the data set with phospho-Tau (pTau) (ApoE4+/+ KI mouse hippocampus, scramble controls 81.3) is 39.1 % of controls. The entries for the “endogenous Aβ40 or Aβ42 levels” value in data set [2] and in data set [2] (listed as miR-195) were “No significant changes” and “no significant changes”, respectively.
